Laboratory results: US5358712A, “Radiopharmaceutical agents for the detection of Alzheimer's disease” (Regents of the University of Minnesota, priority 1993, dated 1994)

Columns and labels:
[1] = test system: vesamicol receptor; assay: Blocking experiments: inhibition of radiotracer accumulation in the rat by coadministered compound; type: in vivo, rat (male Wistar); details: for effect of coadministered vesamicol on accumulation (in words) / Brain: Blood Ratio / Heart: Blood Ratio / radioactivity in blood / radioactivity in brain / radioactivity in heart / radioactivity in kidney / radioactivity in liver / radioactivity in lung / radioactivity in muscle / radioactivity in spleen: rat; for Brain: Blood Ratio / Heart: Blood Ratio / radioactivity in blood / radioactivity in brain / radioactivity in heart / radioactivity in kidney / radioactivity in liver / radioactivity in lung / radioactivity in muscle / radioactivity in spleen: iv, 60 min
Experimental: *Animals in group 1 received an iv injection of (+)4-[^125 l]HIPP
only. For groups 2, 3, and 4, the radiotracer was coadministered with the
hydrochlorides of (+)7 (0.53 mg/kg), (-)7 (0.53 mg/kg) and vesamicol (0.3
Four groups of male Wistar rats (n=3) were used in these experiments. All animals received an iv dose of 8-10 μCi of the radiotracer in 0.1 ml of 50% aq. ethanol. Additionally, in groups 2, 3 and 4, the radiotracer was coadministered with (+)-HBrPP.HCl(1.3 μmol/kg), (-)-HBrPP.HCl(1.3 μmol/kg) and (dl)-vesamicol hydrochloride (1.1 μmol/kg), respectively. At 60 min. post-injection, blood was collected by cardiac puncture and the animals sacrificed as described above. The data was analyzed as outlined above.
NOTE: The dose of radiotracer injected was 5-7 mCi. Group I was the
control, injected with the radiotracer only. Group II included the
simultaneous injection of "cold"(dl)3-HIPP (HCl) (0.53 mg/kg). Group III
included the simultaneous injection of (dl) vesamicol (HCl) (0.31 mg/kg).
All rats were sacrificed at one hour postinjection.
NOTE: Group I was the control, injected with the radiotracer only. Group
II included the simultaneous injection of "cold"(dl)3-HIPP (HCl) (0.53
mg/kg). Group III included the simultaneous injection of (dl) vesamicol
hydrochloride (0.31 mg/kg). The dose of radiotracer was 8-9 μCi. All
rats were sacrificed at one hour postinjection.
NOTE: Group I received (+)[^125 l]13 only. Group II received the (+)
radiotracer coinjected with 0.31 mg/kg (dl)vesamicol hydrochloride. Group
III received (-)[^125 l]13 only. Group IV received the (-) radiotrace
coinjected with 0.31 mg/kg (dl)vesamicol hydrochloride. All animals were
sacrificed at one hour postinjection. The dose of radiotracer injected pe

[2] = Tissue distribution (biodistribution) of radioiodinated compound in the rat; details: for tissue uptake at 5 min / tissue uptake at 0.5 h / tissue uptake at 1 h / tissue uptake at 3 h / decrease of concentration in the brain / initial accumulation in the rat brain / Brain: Blood Ratio / Heart: Blood Ratio / radioactivity in blood / radioactivity in brain / radioactivity in heart / radioactivity in kidney / radioactivity in liver / radioactivity in lung / radioactivity in muscle / radioactivity in spleen: rat; for tissue uptake at 5 min / tissue uptake at 0.5 h / tissue uptake at 1 h / tissue uptake at 3 h / Brain: Blood Ratio / Heart: Blood Ratio / radioactivity in blood / radioactivity in brain / radioactivity in heart / radioactivity in kidney / radioactivity in liver / radioactivity in lung / radioactivity in muscle / radioactivity in spleen: iv; for tissue uptake at 0.5 h: 30 min
[3] = + (dl)-vesamicol HCl 0.3 (Table 3) or 0.31 mg/kg
[4] = + cold (dl)3-HIPP HCl 0.53 mg/kg

OC(Cc1ccc(I)cc1)CN1CCC(c2ccccc2)CC1 (racemic) [Compound 5, (dl)-2-Hydroxy-3-(4-iodophenyl)-1-(4-phenylpiperidyl)propane]
vesamicol receptor ligand (in words) ([1]; conclusion from blocking and regional distribution in vivo): potent ligand
effect of coadministered vesamicol on accumulation (in words) [1]: can be blocked by vesamicol
brain retention (in words) ([2]; rodent (and monkey)): prolonged brain retention

OC(Cc1ccc([125I])cc1)CN1CCC(c2ccccc2)CC1 (single isomer, unassigned; (+)) [(+)-4-[^125 l]HIPP, 2-Hydroxy-3-(4-iodophenyl)-1-(4-phenylpiperidyl)propane]
tissue uptake at 5 min ([2]; blood, radioactivity in blood, 5 min): 0.08 %ID/g
tissue uptake at 0.5 h ([2]; blood, radioactivity in blood): 0.04 %ID/g
tissue uptake at 1 h ([2]; blood, radioactivity in blood, 60 min): 0.03 %ID/g
tissue uptake at 5 min ([2]; brain, radioactivity in brain, 5 min): 1.2 %ID/g
tissue uptake at 0.5 h ([2]; brain, radioactivity in brain): 1.22 %ID/g
tissue uptake at 1 h ([2]; brain, radioactivity in brain, 60 min): 1.23 %ID/g
tissue uptake at 3 h ([2]; brain, radioactivity in brain, 180 min): 1.35 %ID/g
tissue uptake at 5 min ([2]; heart, radioactivity in heart, 5 min): 1.8 %ID/g
tissue uptake at 0.5 h ([2]; heart, radioactivity in heart): 1.23 %ID/g
tissue uptake at 1 h ([2]; heart, radioactivity in heart, 60 min): 1.12 %ID/g
tissue uptake at 3 h ([2]; heart, radioactivity in heart, 180 min): 0.84 %ID/g
tissue uptake at 5 min ([2]; kidney, radioactivity in kidney, 5 min): 2.84 %ID/g
tissue uptake at 0.5 h ([2]; kidney, radioactivity in kidney): 2.42 %ID/g
tissue uptake at 1 h ([2]; kidney, radioactivity in kidney, 60 min): 2.3 %ID/g
tissue uptake at 3 h ([2]; kidney, radioactivity in kidney, 180 min): 1.81 %ID/g
tissue uptake at 5 min ([2]; liver, radioactivity in liver, 5 min): 1.58 %ID/g
tissue uptake at 0.5 h ([2]; liver, radioactivity in liver): 2.55 %ID/g
tissue uptake at 1 h ([2]; liver, radioactivity in liver, 60 min): 2.43 %ID/g
tissue uptake at 3 h ([2]; liver, radioactivity in liver, 180 min): 2.38 %ID/g
tissue uptake at 5 min ([2]; lung, radioactivity in lung, 5 min): 11.5 %ID/g
tissue uptake at 0.5 h ([2]; lung, radioactivity in lung): 5.59 %ID/g
tissue uptake at 1 h ([2]; lung, radioactivity in lung, 60 min): 4.75 %ID/g
tissue uptake at 3 h ([2]; lung, radioactivity in lung, 180 min): 3.74 %ID/g
tissue uptake at 5 min ([2]; muscle, radioactivity in muscle, 5 min): 0.24 %ID/g
tissue uptake at 0.5 h ([2]; muscle, radioactivity in muscle): 0.25 %ID/g
tissue uptake at 1 h ([2]; muscle, radioactivity in muscle, 60 min): 0.19 %ID/g
tissue uptake at 3 h ([2]; muscle, radioactivity in muscle, 180 min): 0.24 %ID/g
tissue uptake at 5 min ([2]; spleen, radioactivity in spleen, 5 min): 0.71 %ID/g
tissue uptake at 0.5 h ([2]; spleen, radioactivity in spleen): 1.28 %ID/g
tissue uptake at 1 h ([2]; spleen, radioactivity in spleen, 60 min): 1.23 %ID/g
tissue uptake at 3 h ([2]; spleen, radioactivity in spleen, 180 min): 1.39 %ID/g

OC(Cc1cccc([125I])c1)CN1CCC(c2ccccc2)CC1 (single isomer, unassigned; (-)) [(-)-[^125 l]12] [2-Hydroxyl-3-(3-iodophenyl)-1-[1-(4-phenylpiperidinyl)]propane]
effect of coadministered vesamicol on accumulation (in words) [1]: inhibited
Brain: Blood Ratio [1, 3]: 1.40
Heart: Blood Ratio [1, 3]: 0.95
radioactivity in blood [1, 3]: 0.14 % dose/g of tissue
radioactivity in brain [1, 3]: 0.20 % dose/g of tissue
radioactivity in heart [1, 3]: 0.14 % dose/g of tissue
radioactivity in kidney [1, 3]: 0.46 % dose/g of tissue
radioactivity in liver [1, 3]: 0.81 % dose/g of tissue
radioactivity in lung [1, 3]: 0.73 % dose/g of tissue
radioactivity in muscle [1, 3]: 0.13 % dose/g of tissue
radioactivity in spleen [1, 3]: 0.50 % dose/g of tissue
radioactivity in blood [1, 4]: 0.13 % dose/g of tissue
Brain: Blood Ratio [1, 4]: 1.19
Heart: Blood Ratio [1, 4]: 0.87
radioactivity in brain [1, 4]: 0.15 % dose/g of tissue
radioactivity in heart [1, 4]: 0.11 % dose/g of tissue
radioactivity in kidney [1, 4]: 0.46 % dose/g of tissue
radioactivity in liver [1, 4]: 0.63 % dose/g of tissue
radioactivity in lung [1, 4]: 0.57 % dose/g of tissue
radioactivity in muscle [1, 4]: 0.10 % dose/g of tissue
radioactivity in spleen [1, 4]: 0.36 % dose/g of tissue
Brain: Blood Ratio ([1]; radiotracer only (control)): 5.08
Heart: Blood Ratio ([1]; radiotracer only (control)): 1.57
radioactivity in blood ([1]; radiotracer only (control)): 0.13 % dose/g of tissue
radioactivity in brain ([1]; radiotracer only (control)): 0.64 % dose/g of tissue
radioactivity in heart ([1]; radiotracer only (control)): 0.20 % dose/g of tissue
radioactivity in kidney ([1]; radiotracer only (control)): 0.98 % dose/g of tissue
radioactivity in liver ([1]; radiotracer only (control)): 0.86 % dose/g of tissue
radioactivity in lung ([1]; radiotracer only (control)): 0.92 % dose/g of tissue
radioactivity in muscle ([1]; radiotracer only (control)): 0.15 % dose/g of tissue
radioactivity in spleen ([1]; radiotracer only (control)): 0.83 % dose/g of tissue
decrease of concentration in the brain ([2]; 1 hour post-injection vs initial, listed as (-)-[^125 I]12): 43%
decrease of concentration in the brain ([2]; 3 hours post-injection vs initial, listed as (-)-[^125 I]12): 74%
initial accumulation in the rat brain ([2]; listed as (-)-[^125 I]12): 1.86 % of the injected dose
Brain: Blood Ratio ([2]; 5 min): 9.0
Heart: Blood Ratio ([2]; 5 min): 11.4
radioactivity in blood ([2]; 5 min): 0.11 % dose/g
radioactivity in brain ([2]; 5 min): 0.98 % dose/g
radioactivity in heart ([2]; 5 min): 1.26 % dose/g
radioactivity in kidney ([2]; 5 min): 2.46 % dose/g
radioactivity in liver ([2]; 5 min): 1.41 % dose/g
radioactivity in lung ([2]; 5 min): 8.94 % dose/g
radioactivity in muscle ([2]; 5 min): 0.36 % dose/g
radioactivity in spleen ([2]; 5 min): 0.66 % dose/g
Brain: Blood Ratio ([2]; 60 min): 5.1
Heart: Blood Ratio ([2]; 60 min): 1.9
radioactivity in blood ([2]; 60 min): 0.11 % dose/g
radioactivity in brain ([2]; 60 min): 0.56 % dose/g
radioactivity in heart ([2]; 60 min): 0.21 % dose/g
radioactivity in kidney ([2]; 60 min): 1.00 % dose/g
radioactivity in liver ([2]; 60 min): 1.04 % dose/g
radioactivity in lung ([2]; 60 min): 1.04 % dose/g
radioactivity in muscle ([2]; 60 min): 0.14 % dose/g
radioactivity in spleen ([2]; 60 min): 0.95 % dose/g
Brain: Blood Ratio ([2]; 180 min): 2.6
Heart: Blood Ratio ([2]; 180 min): 0.9
radioactivity in blood ([2]; 180 min): 0.11 % dose/g
radioactivity in brain ([2]; 180 min): 0.27 % dose/g
radioactivity in heart ([2]; 180 min): 0.10 % dose/g
radioactivity in kidney ([2]; 180 min): 0.59 % dose/g
radioactivity in liver ([2]; 180 min): 0.79 % dose/g
radioactivity in lung ([2]; 180 min): 0.46 % dose/g
radioactivity in muscle ([2]; 180 min): 0.08 % dose/g
radioactivity in spleen ([2]; 180 min): 0.44 % dose/g

OC(Cc1cccc([125I])c1)CN1CCC(c2ccccc2)CC1 (single isomer, unassigned; (+)) [(+)-[^125 l]12] [2-Hydroxyl-3-(3-iodophenyl)-1-[1-(4-phenylpiperidinyl)]propane]
effect of coadministered vesamicol on accumulation (in words) [1]: inhibited
Brain: Blood Ratio [1, 3]: 2.14
Heart: Blood Ratio [1, 3]: 1.10
Brain: Blood Ratio [1, 4]: 1.92
Heart: Blood Ratio [1, 4]: 1.16
Brain: Blood Ratio ([1]; radiotracer only (control)): 8.49
Heart: Blood Ratio ([1]; radiotracer only (control)): 3.96
decrease of concentration in the brain ([2]; 1 hour post-injection vs initial, listed as (+)-[^125 I]12): 20%
decrease of concentration in the brain ([2]; 3 hours post-injection vs initial, listed as (+)-[^125 I]12): 54%
initial accumulation in the rat brain ([2]; listed as (+)-[^125 I]12): 2.08 % of the injected dose
Brain: Blood Ratio ([2]; 5 min): 13.1
Heart: Blood Ratio ([2]; 5 min): 16.4
Brain: Blood Ratio ([2]; 60 min): 9.2
Heart: Blood Ratio ([2]; 60 min): 4.2
Brain: Blood Ratio ([2]; 180 min): 7.2
Heart: Blood Ratio ([2]; 180 min): 2.1
radioactivity in brain ([2]; 180 min): 0.56 % dose/g
